Measurements from article PMC314469, “Protein Interaction Networks by Proteome Peptide Scanning” (PLoS Biology, 2004).

Tested on: Myo5 SH3 domain
Assay: SPOT analysis of cellulose-bound peptides (WISE), Myo5 SH3 domain (Dataset S4)
Type: binding, Saccharomyces cerevisiae
Settings: for The normalized value in BLU units: Myo5 SH3 domain
[1] = SPOT analysis of membrane-synthesized peptides probed with Myo5 SH3 domain, normalized value
[2] = SPOT analysis of membrane-bound peptides, normalized value (see methods)
[3] = SPOT analysis of cellulose-bound peptides probed with Myo5 SH3 domain, normalized value
[4] = SPOT analysis of cellulose-bound 14-mer yeast proteome peptides, normalized value, mean where the peptide was synthesized more than once

AVLIRADPLNPKVV was tested, and the “The normalized value in BLU units (SPOT analysis, Myo5 SH3)” value [1] was 102.0 BLU.
AVQLKRQPAQPRES was tested, and the “The normalized value in BLU units (SPOT analysis, Myo5 SH3)” value [1] was 237.9 BLU.
With AVVYKLKPYIPSLS the “The normalized value in BLU units” value [2] was 112.0 BLU.
With CAKSKSRPNTPGSD the “The normalized value in BLU units” value [2] was 153.0 BLU.
CFKTKFAPEAPDLF was tested, and the “The normalized value in BLU units” value [2] was 209.0 BLU.
For CKYNRQHPANPAAA, the “The normalized value in BLU units” value [2] was 189.3 BLU.
In the case of CLRARNGPVPPVHI, the “The normalized value in BLU units” value [2] is reported as 207.8 BLU.
With CNRARYLPQNPDII the “The normalized value in BLU units” value [2] was 243.9 BLU.
For CNYSKIFPGIPISL, the “The normalized value in BLU units (SPOT analysis, Myo5 SH3)” value [1] was 49.2 BLU.
With CRHLKLVPSTPMDI the “The normalized value in BLU units” value [2] was 361.8 BLU.
For CWHPKTIPKQPMEI, the “The normalized value in BLU units (SPOT analysis, Myo5 SH3)” value [1] was 342.9 BLU.
For DARPFLKPVDPIAL, the “The normalized value in BLU units (SPOT analysis, Myo5 SH3)” value [3] was 126.2 BLU.
In the case of DARPFLQPVDPVKL, the “The normalized value in BLU units (SPOT analysis, Myo5 SH3)” value [3] is reported as 179.1 BLU.
With DDIIKDHPHIPNGQ the “The normalized value in BLU units” value [2] was 57.8 BLU.
In the case of DDNVRPSPISPSIN, the “The normalized value in BLU units” value [2] is reported as 153.4 BLU.
In the case of DEALRYCPDAPIVL, the “The normalized value in BLU units” value [2] is reported as 127.1 BLU.
For DEFNRNTPPQPSLL, the “The normalized value in BLU units (SPOT analysis, Myo5 SH3)” value [1] was 118.0 BLU.
For DEFTLDLPRIPSLE, the “The normalized value in BLU units” value [4] was 180.8 BLU.
With DELLLMSPELPADL the “The normalized value in BLU units (SPOT analysis, Myo5 SH3)” value [3] was 16.0 BLU.
For DENSKWQPSDPFTM, the “The normalized value in BLU units (SPOT analysis, Myo5 SH3)” value [1] was 285.2 BLU.
In the case of DEPIRYAPGDPIEK, the “The normalized value in BLU units (SPOT analysis, Myo5 SH3)” value [1] is reported as 106.5 BLU.
DETRKLTPCSPGDD was tested, and the “The normalized value in BLU units” value [2] was 230.8 BLU.
In the case of DFIGRKSPDLPEYL, the “The normalized value in BLU units” value [2] is reported as 138.7 BLU.
With DFIKLMNPTLPSLK the “The normalized value in BLU units” value [4] was 151.5 BLU.
DFNKFERPNIPVEE was tested, and the “The normalized value in BLU units” value [4] was 212.3 BLU.
In the case of DFPLYKSPAFPSSC, the “The normalized value in BLU units (SPOT analysis, Myo5 SH3)” value [3] is reported as 172.8 BLU.
For DFRGRAYPLSPHFN, the “The normalized value in BLU units (SPOT analysis, Myo5 SH3)” value [1] was 785.0 BLU.
DFRLHYYPKDPSNV was tested, and the “The normalized value in BLU units (SPOT analysis, Myo5 SH3)” value [3] was 77.7 BLU.
In the case of DFSSYGPPGTPGYD, the “The normalized value in BLU units (SPOT analysis, Myo5 SH3)” value [3] is reported as 108.5 BLU.
In the case of DFVTLHVPATPETE, the “The normalized value in BLU units” value [4] is reported as 190.5 BLU.
DGKLKHIPRRPYEI was tested, and the “The normalized value in BLU units” value [4] was 306.6 BLU.
In the case of DIGSKKLPTGPSKK, the “The normalized value in BLU units (SPOT analysis, Myo5 SH3)” value [1] is reported as 219.8 BLU.
In the case of DIKTRSVPKIPSIE, the “The normalized value in BLU units” value [2] is reported as 102.3 BLU.
In the case of DILKKESPDVPLFD, the “The normalized value in BLU units (SPOT analysis, Myo5 SH3)” value [1] is reported as 146.1 BLU.
DIPLKQVPENPMPT was tested, and the “The normalized value in BLU units” value [2] was 62.9 BLU.
With DIPRRYIPITPADL the “The normalized value in BLU units” value [2] was 33.0 BLU.
DKFIKLIPMRPVLI was tested, and the “The normalized value in BLU units” value [2] was 252.9 BLU.
For DKIFKTDPNEPAND, the “The normalized value in BLU units (SPOT analysis, Myo5 SH3)” value [1] was 99.1 BLU.
In the case of DKKKKKYPRKPKKN, the “The normalized value in BLU units” value [2] is reported as 532.3 BLU.
DLDWRKIPFLPKEI was tested, and the “The normalized value in BLU units” value [4] was 250.1 BLU.
For DLIHLDCPQQPNGY, the “The normalized value in BLU units” value [4] was 219.5 BLU.
DLKEFNGPEPPIKR was tested, and the “The normalized value in BLU units (SPOT analysis, Myo5 SH3)” value [3] was 125.6 BLU.
With DLKKKYAPDPPITH the “The normalized value in BLU units” value [2] was 185.5 BLU.
With DLLGLSTPQSPTNS the “The normalized value in BLU units (SPOT analysis, Myo5 SH3)” value [3] was 91.9 BLU.
In the case of DLMALKYPYFPTKM, the “The normalized value in BLU units (SPOT analysis, Myo5 SH3)” value [3] is reported as 139.1 BLU.
With DLQKKYEPSPPATH the “The normalized value in BLU units” value [2] was 224.6 BLU.
In the case of DLSLRYAPNLPRVI, the “The normalized value in BLU units” value [2] is reported as 249.6 BLU.
For DLSVHTSPHGPIGS, the “The normalized value in BLU units” value [4] was 186.1 BLU.
With DLSYYLRPIKPFNT the “The normalized value in BLU units (SPOT analysis, Myo5 SH3)” value [3] was 160.7 BLU.
With DNELKDEPEPPNLI the “The normalized value in BLU units (SPOT analysis, Myo5 SH3)” value [1] was 179.2 BLU.
With DPNAYMQPQVPVQM the “The normalized value in BLU units (SPOT analysis, Myo5 SH3)” value [3] was 160.5 BLU.
For DPNQLSTPPTPKSA, the “The normalized value in BLU units” value [4] was 166.4 BLU.
DPSDKSLPQQPFHK was tested, and the “The normalized value in BLU units” value [2] was 191.9 BLU.
For DPSLYQIPEPPRGG, the “The normalized value in BLU units (SPOT analysis, Myo5 SH3)” value [3] was 98.8 BLU.
For DQLNRLLPNLPEEE, the “The normalized value in BLU units (SPOT analysis, Myo5 SH3)” value [1] was 47.5 BLU.
In the case of DRKNRAPPQRPRFN, the “The normalized value in BLU units (SPOT analysis, Myo5 SH3)” value [1] is reported as 2434.1 BLU.
For DRLSKIKPFLPQSI, the “The normalized value in BLU units (SPOT analysis, Myo5 SH3)” value [1] was 225.5 BLU.
In the case of DSVLRQKPDKPRPI, the “The normalized value in BLU units” value [2] is reported as 134.9 BLU.
For DSYSRSRPTRPLGY, the “The normalized value in BLU units” value [2] was 261.3 BLU.
DTYARNNPDFPPQN was tested, and the “The normalized value in BLU units” value [4] was 138.5 BLU.
With DVNHRYPPMAPTTV the “The normalized value in BLU units (SPOT analysis, Myo5 SH3)” value [1] was 175.5 BLU.
With DYRPKCIPCPPNGI the “The normalized value in BLU units (SPOT analysis, Myo5 SH3)” value [1] was 154.3 BLU.
In the case of EADGLVQPVVPDKV, the “The normalized value in BLU units” value [4] is reported as 75.1 BLU.
EAFKLPKPWSPNSH was tested, and the “The normalized value in BLU units” value [4] was 141.0 BLU.
In the case of EAGDFEQPKGPAGA, the “The normalized value in BLU units (SPOT analysis, Myo5 SH3)” value [3] is reported as 49.8 BLU.
For EAHQHHQPPEPQPY, the “The normalized value in BLU units (SPOT analysis, Myo5 SH3)” value [3] was 0.0 BLU.
For EAIKLGVPKGPLFA, the “The normalized value in BLU units (SPOT analysis, Myo5 SH3)” value [3] was 130.4 BLU.
With EARPYSEPSEPEDS the “The normalized value in BLU units (SPOT analysis, Myo5 SH3)” value [3] was 208.3 BLU.
For EAYRLNYPELPRLT, the “The normalized value in BLU units” value [4] was 125.1 BLU.
In the case of EDLVKKPPFIPSPT, the “The normalized value in BLU units” value [2] is reported as 755.9 BLU.
EEEAKSVPPIPADQ was tested, and the “The normalized value in BLU units (SPOT analysis, Myo5 SH3)” value [1] was 29.4 BLU.
